Data from patent US9328122B2, “7-substituted Hanfangichin B derivative, and preparation method and use thereof” (HANGZHOU BENSHENG PHARMACEUTICAL CO., LTD., priority 2012, dated 2016).
Converted amounts (≈) assume the structure as drawn.

Experiments:
[1] = tested on: K562/ADR (K562adr, drug-resistant chronic myeloid leukemia) cells; assay: MTT cell growth inhibition, leukemia cells; format: cell-based; details: Homo sapiens, K562/ADR, 72 h, MTT; for IC50: read-out: IC50; for IC90: read-out: IC90
Text: (§1) Leukemia cell lines: leukemia cell lines: K562adr (drug-resistant, chronic myeloid leukemia, CML), NB4 (acute promyelocytic leukemia, AML), Kasumi-1 (acute myeloid leukemia M2 type, AML-M2), Jurkat (acute lymphoblastic leukemia, ALL), all of which were donated by Cancer Research Institute of Zhejiang University, China; and H9 (acute lymphoblastic leukemia, ALL), which was purchased from China Center for Type Culture Collection.
(§2) Reagents: The standard sample of fangchinoline (FAN) was purchased from Ci Yuan Biotechnology Co., Ltd., Shaanxi, China; and the 7-substituted fangchinoline derivatives according to the present invention.
(§3) 6000 well-growing leukemia cells were obtained and inoculated into wells of a 96-well cell culture plate. The culture medium was a RPMI-1640 cell culture medium containing 10% fetal bovine serum. After adding the 7-substituted fangchinoline derivatives of different concentrations the next day and mixing uniformly, the plate was placed in a carbon dioxide cell incubator (5% CO2) at 37° C. and incubating for 72 hours. Then the viable cell concentration was determined by the MTT method.

[2] = tested on: NB4 (acute promyelocytic leukemia) cells; assay: MTT cell growth inhibition, leukemia cells; format: cell-based; details: Homo sapiens, NB4, 72 h, MTT; for IC50: read-out: IC50; for IC90: read-out: IC90
Text: as §1, §2, §3

[3] = tested on: H9 (acute lymphoblastic leukemia) cells; assay: MTT cell growth inhibition, leukemia cells; format: cell-based, human; details: Homo sapiens, H9, 72 h, MTT; for IC50: read-out: IC50; for IC90: read-out: IC90
Text: as §1, §2, §3

[4] = tested on: Jurkat (acute lymphoblastic leukemia) cells; assay: MTT cell growth inhibition, leukemia cells; format: cell-based, human; details: Homo sapiens, Jurkat, 72 h, MTT; for IC50: read-out: IC50; for IC90: read-out: IC90
Text: as §1, §2, §3

[5] = tested on: Kasumi-1 (acute myeloid leukemia M2 type) cells; assay: MTT cell growth inhibition, leukemia cells; format: cell-based, human; details: Homo sapiens, Kasumi-1, 72 h, MTT; for IC50: read-out: IC50; for IC90: read-out: IC90
Text: as §1, §2, §3

[6] = tested on: RPMI 8226 (multiple myeloma) cells; assay: MTT cell growth inhibition, multiple myeloma cells; format: cell-based, human; details: Homo sapiens, RPMI 8226, 72 h, MTT; for IC50: read-out: IC50; for IC90: read-out: IC90
Experimental: Myeloma cell lines: RPMI8226 (multiple myeloma), purchased from Fuxiang Bio-tech Co. Ltd., Shanghai, China.
as §3, with “well-growing” for “well-growing leukemia”, “incubated” for “incubating”

[7] = tested on: CNE (nasopharyngeal carcinoma) cells; assay: MTT cell growth inhibition, solid tumor cells; format: cell-based, human; details: Homo sapiens, CNE, 72 h, MTT; for IC50: read-out: IC50; for IC90: read-out: IC90
Text: (§4) Hep-2 (laryngeal carcinoma), A549 (human lung cancer), CaES-17 (esophageal cancer cell), PC-3 (prostate cancer), CNE (nasopharyngeal carcinoma cell) and SK-OV-3 (ovarian cancer cell), all of which were purchased from China Center For Type Culture Collection; RKO (human colon adenocarcinoma cell), MGC-803 (human gastric cancer cell), MG-63 (osteosarcoma), and U87-MG (malignant glioma cell), all of which were purchased from Fuxiang Bio-tech Co. Ltd., Shanghai, China; PANC-1 (pancreatic cancer), Becap37 (human breast cancer cell), Hela (human cervical cancer cell) and Hep G2 (human liver cancer cell), all of which were donated by Cancer Research Institute of Zhejiang University, China.
as §3, with “human solid tumor” for “leukemia”, “DMEM High Glucose” for “a RPMI-1640”, “serum. The plate was placed in a carbon dioxide cell incubator (5% CO2) at 37° C. and incubated for 24 hours.” for “serum.”, “added with” for “adding the”, “concentration” for “concentrations the next day”, “incubated” for “incubating”

[8] = tested on: CaEs-17 (esophageal cancer) cells; assay: MTT cell growth inhibition, solid tumor cells; format: cell-based, human; details: Homo sapiens, CaEs17, CaEs-17, 72 h, MTT; for IC50: read-out: IC50; for IC90: read-out: IC90
Text: as §4
as §3, with “human solid tumor” for “leukemia”, “DMEM High Glucose” for “a RPMI-1640”, “serum. The plate was placed in a carbon dioxide cell incubator (5% CO2) at 37° C. and incubated for 24 hours.” for “serum.”, “added with” for “adding the”, “concentration” for “concentrations the next day”, “incubated” for “incubating”

[9] = tested on: PANC-1 (pancreatic cancer) cells; assay: MTT cell growth inhibition, solid tumor cells; format: cell-based, human; details: Homo sapiens, PANC-1, 72 h, MTT; for IC50: read-out: IC50; for IC90: read-out: IC90
Text: as §4
as §3, with “human solid tumor” for “leukemia”, “DMEM High Glucose” for “a RPMI-1640”, “serum. The plate was placed in a carbon dioxide cell incubator (5% CO2) at 37° C. and incubated for 24 hours.” for “serum.”, “added with” for “adding the”, “concentration” for “concentrations the next day”, “incubated” for “incubating”

[10] = tested on: PC-3 (prostate cancer) cells; assay: MTT cell growth inhibition, solid tumor cells; format: cell-based, human; details: Homo sapiens, PC-3, 72 h, MTT; for IC50: read-out: IC50; for IC90: read-out: IC90
Text: as §4
as §3, with “human solid tumor” for “leukemia”, “DMEM High Glucose” for “a RPMI-1640”, “serum. The plate was placed in a carbon dioxide cell incubator (5% CO2) at 37° C. and incubated for 24 hours.” for “serum.”, “added with” for “adding the”, “concentration” for “concentrations the next day”, “incubated” for “incubating”

[11] = tested on: SK-OV-3 (ovarian cancer) cells; assay: MTT cell growth inhibition, solid tumor cells; format: cell-based, human; details: Homo sapiens, SK-OV-3, 72 h, MTT; for IC50: read-out: IC50; for IC90: read-out: IC90
Text: as §4
as §3, with “human solid tumor” for “leukemia”, “DMEM High Glucose” for “a RPMI-1640”, “serum. The plate was placed in a carbon dioxide cell incubator (5% CO2) at 37° C. and incubated for 24 hours.” for “serum.”, “added with” for “adding the”, “concentration” for “concentrations the next day”, “incubated” for “incubating”

[12] = tested on: Becap-37 (human breast cancer) cells; assay: MTT cell growth inhibition, solid tumor cells; format: cell-based; details: Homo sapiens, Becap-37, 72 h, MTT; for IC50: read-out: IC50; for IC90: read-out: IC90
Text: as §4
as §3, with “human solid tumor” for “leukemia”, “DMEM High Glucose” for “a RPMI-1640”, “serum. The plate was placed in a carbon dioxide cell incubator (5% CO2) at 37° C. and incubated for 24 hours.” for “serum.”, “added with” for “adding the”, “concentration” for “concentrations the next day”, “incubated” for “incubating”

[13] = tested on: Hela (human cervical cancer) cells; assay: MTT cell growth inhibition, solid tumor cells; format: cell-based; details: Homo sapiens, Hela, 72 h, MTT; for IC50: read-out: IC50; for IC90: read-out: IC90
Text: as §4
as §3, with “human solid tumor” for “leukemia”, “DMEM High Glucose” for “a RPMI-1640”, “serum. The plate was placed in a carbon dioxide cell incubator (5% CO2) at 37° C. and incubated for 24 hours.” for “serum.”, “added with” for “adding the”, “concentration” for “concentrations the next day”, “incubated” for “incubating”

[14] = tested on: Hep G2 (human liver cancer) cells; assay: MTT cell growth inhibition, solid tumor cells; format: cell-based; details: Homo sapiens, HepG2, Hep G2, 72 h, MTT; for IC50: read-out: IC50; for IC90: read-out: IC90
Text: as §4
as §3, with “human solid tumor” for “leukemia”, “DMEM High Glucose” for “a RPMI-1640”, “serum. The plate was placed in a carbon dioxide cell incubator (5% CO2) at 37° C. and incubated for 24 hours.” for “serum.”, “added with” for “adding the”, “concentration” for “concentrations the next day”, “incubated” for “incubating”

[15] = tested on: MG-63 (osteosarcoma) cells; assay: MTT cell growth inhibition, solid tumor cells; format: cell-based; details: Homo sapiens, MG-63, 72 h, MTT; for IC50: read-out: IC50; for IC90: read-out: IC90
Text: as §4
as §3, with “human solid tumor” for “leukemia”, “DMEM High Glucose” for “a RPMI-1640”, “serum. The plate was placed in a carbon dioxide cell incubator (5% CO2) at 37° C. and incubated for 24 hours.” for “serum.”, “added with” for “adding the”, “concentration” for “concentrations the next day”, “incubated” for “incubating”

[16] = tested on: MGC-803 (human gastric cancer) cells; assay: MTT cell growth inhibition, solid tumor cells; format: cell-based; details: MGC-803, 72 h, MTT; for IC50: read-out: IC50; for IC90: read-out: IC90
Text: as §4
as §3, with “human solid tumor” for “leukemia”, “DMEM High Glucose” for “a RPMI-1640”, “serum. The plate was placed in a carbon dioxide cell incubator (5% CO2) at 37° C. and incubated for 24 hours.” for “serum.”, “added with” for “adding the”, “concentration” for “concentrations the next day”, “incubated” for “incubating”

[17] = tested on: RKO (human colon adenocarcinoma) cells; assay: MTT cell growth inhibition, solid tumor cells; format: cell-based; details: Homo sapiens, RKO, 72 h, MTT; for IC50: read-out: IC50; for IC90: read-out: IC90
Text: as §4
as §3, with “human solid tumor” for “leukemia”, “DMEM High Glucose” for “a RPMI-1640”, “serum. The plate was placed in a carbon dioxide cell incubator (5% CO2) at 37° C. and incubated for 24 hours.” for “serum.”, “added with” for “adding the”, “concentration” for “concentrations the next day”, “incubated” for “incubating”

[18] = tested on: tumor; assay: Antitumor activity compared with fangchinoline, overall statement; format: cell-based; details: tumor type not specified

IC50 [1]	IC90 [1]	IC50 [2]	IC90 [2]	IC50 [3]	IC90 [3]	IC50 [4]	IC90 [4]	IC50 [5]	IC90 [5]	IC50 [6]	IC90 [6]	IC50 [7]	IC90 [7]	IC50 [8]	IC90 [8]	IC50 [9]	IC90 [9]	IC50 [10]	IC90 [10]	Structure (SMILES)	further results
0.4 µg/mL (≈ 0.524 µM)	3.03 µg/mL (≈ 3.97 µM)	0.38 µg/mL (≈ 0.498 µM)	0.94 µg/mL (≈ 1.23 µM)	2.4 µg/mL (≈ 3.15 µM)	6.4 µg/mL (≈ 8.39 µM)	0.72 µg/mL (≈ 0.944 µM)	1.97 µg/mL (≈ 2.58 µM)	1.93 µg/mL (≈ 2.53 µM)	4.32 µg/mL (≈ 5.66 µM)	0.14 µg/mL (≈ 0.184 µM)	0.77 µg/mL (≈ 1.01 µM)	3.5 µg/mL (≈ 4.59 µM)	6.9 µg/mL (≈ 9.04 µM)	2.47 µg/mL (≈ 3.24 µM)	7.91 µg/mL (≈ 10.4 µM)	3.16 µg/mL (≈ 4.14 µM)	6.75 µg/mL (≈ 8.85 µM)	3.17 µg/mL (≈ 4.16 µM)	5.85 µg/mL (≈ 7.67 µM)	COc1ccc2cc1Oc1ccc(cc1)C[C@H]1c3cc(c(OC)cc3CCN1C)Oc1c(OS(=O)(=O)c3ccc(C)cc3)c(OC)cc3c1[C@H](C2)N(C)CC3 [BS-FC-102]	IC50 [11]: 1.92 µg/mL (≈ 2.52 µM); IC90 [11]: 8.07 µg/mL (≈ 10.6 µM); IC50 [12]: 2.49 µg/mL (≈ 3.26 µM); IC90 [12]: 4 µg/mL (≈ 5.24 µM); IC50 [13]: 1.44 µg/mL (≈ 1.89 µM); IC90 [13]: 3.39 µg/mL (≈ 4.44 µM); IC50 [14]: 1.56 µg/mL (≈ 2.04 µM); IC90 [14]: 3.94 µg/mL (≈ 5.16 µM); IC50 [15]: 3.18 µg/mL (≈ 4.17 µM); IC90 [15]: 4.83 µg/mL (≈ 6.33 µM); IC50 [16]: 1.71 µg/mL (≈ 2.24 µM); IC90 [16]: 4.95 µg/mL (≈ 6.49 µM); IC50 [17]: 1.44 µg/mL (≈ 1.89 µM); IC90 [17]: 2.33 µg/mL (≈ 3.05 µM); antitumor activity compared with that of fangchinoline [18]: significantly superior
0.42 µg/mL (≈ 0.561 µM)	2.65 µg/mL (≈ 3.54 µM)	0.28 µg/mL (≈ 0.374 µM)	0.92 µg/mL (≈ 1.23 µM)	1 µg/mL (≈ 1.34 µM)	4.99 µg/mL (≈ 6.66 µM)	0.45 µg/mL (≈ 0.601 µM)	3.03 µg/mL (≈ 4.05 µM)	0.95 µg/mL (≈ 1.27 µM)	3.68 µg/mL (≈ 4.91 µM)	0.12 µg/mL (≈ 0.16 µM)	0.5 µg/mL (≈ 0.668 µM)	2.5 µg/mL (≈ 3.34 µM)	4.9 µg/mL (≈ 6.54 µM)	2 µg/mL (≈ 2.67 µM)	7.42 µg/mL (≈ 9.91 µM)	2.01 µg/mL (≈ 2.68 µM)	10.8 µg/mL (≈ 14.4 µM)	2.5 µg/mL (≈ 3.34 µM)	5.51 µg/mL (≈ 7.36 µM)	COc1ccc2cc1Oc1ccc(cc1)C[C@H]1c3cc(c(OC)cc3CCN1C)Oc1c(OS(=O)(=O)c3ccccc3)c(OC)cc3c1[C@H](C2)N(C)CC3 [BS-FC-104]	IC50 [11]: 1.88 µg/mL (≈ 2.51 µM); IC90 [11]: 3.79 µg/mL (≈ 5.06 µM); IC50 [12]: 1.92 µg/mL (≈ 2.56 µM); IC90 [12]: 3.94 µg/mL (≈ 5.26 µM); IC50 [13]: 1 µg/mL (≈ 1.34 µM); IC90 [13]: 3.42 µg/mL (≈ 4.57 µM); IC50 [14]: 1.44 µg/mL (≈ 1.92 µM); IC90 [14]: 3.9 µg/mL (≈ 5.21 µM); IC50 [15]: 2.71 µg/mL (≈ 3.62 µM); IC90 [15]: 3.88 µg/mL (≈ 5.18 µM); IC50 [16]: 1.36 µg/mL (≈ 1.82 µM); IC90 [16]: 4.28 µg/mL (≈ 5.72 µM); IC50 [17]: 0.74 µg/mL (≈ 0.988 µM); IC90 [17]: 1.76 µg/mL (≈ 2.35 µM); antitumor activity compared with that of fangchinoline [18]: significantly superior
